Measured values reported in patent US20100070184A1, “METHOD FOR D[…] HIV TO PROTEASE INHIBITOR TREATMENT” (MONOGRAM BIOSCIENCES, INC., priority 2006, published 2010).

Tested on: HIV-1 from the patient plasma sample
Assay: PHENOSENSE HIV phenotypic assay, tipranavir IC50 fold change vs NL4-3 reference strain
Format: cell-based
Details: for MEAN tipranavir FC / MEDIAN tipranavir FC: 1411 patient samples
Procedure: In one embodiment, the phenotypic analysis is performed using PHENOSENSE™ (ViroLogic Inc., South San Francisco, Calif.). See Petropoulos et al., 2000, Antimicrob. Agents Chemother. 44:920-928; U.S. Pat. Nos. 5,837,464 and 6,242,187. PHENOSENSE™ is a phenotypic assay that achieves the benefits of phenotypic testing and overcomes the drawbacks of previous assays. Because the assay has been automated, PHENOSENSE™ offers higher throughput under controlled conditions. The result is an assay that accurately defines the susceptibility profile of a patient's HIV isolates to all currently available antiretroviral drugs, and delivers results directly to the physician within about 10 to about 15 days of sample receipt. PHENOSENSE™ is accurate and can obtain results with only one round of viral replication, thereby avoiding selection of subpopulations of virus. The results are quantitative, measuring varying degrees of drug susceptibility, and sensitive—the test can be performed on blood specimens with a viral load of about 500 copies/mL and can detect minority populations of some drug-resistant virus at concentrations of 10% or less of total viral population. Furthermore, the results are reproducible and can vary by less than about 1.4-2.5 fold, depending on the drug, in about 95% of the assays performed.
A resistance test vector (“RTV”) can then be constructed by incorporating the amplified viral gene sequences into a replication defective viral vector by using any method known in the art of incorporating gene sequences into a vector. In one embodiment, restrictions enzymes and conventional cloning methods are used. See Maniatis et al., 1989, Molecular Cloning: A Laboratory Manual, Cold Spring Harbor Laboratory, NY and Ausubel et al., 1989, Current Protocols in Molecular Biology, Greene Publishing Associates and Wiley Interscience, NY. In some embodiments, ApaI and PinAI restriction enzymes are used. Preferably, the replication defective viral vector is the indicator gene viral vector (“IGVV”). In some embodiments, the viral vector contains a means for detecting replication of the RTV. Preferably, the viral vector contains a luciferase expression cassette.
The assay can be performed by first co-transfecting host cells with RTV DNA and a plasmid that expresses the envelope proteins of another retrovirus, for example, amphotropic murine leukemia virus (MLV). Following transfection, virus particles can be harvested and used to infect fresh target cells. The completion of a single round of viral replication can be detected by the means for detecting replication contained in the vector. In one embodiment, the completion of a single round of viral replication results in the production of luciferase. Serial concentrations of anti-viral agents can be added at either the transfection step or the infection step.
Susceptibility to the anti-viral agent can be measured by comparing the replication of the vector in the presence and absence of the anti-viral agent. For example, susceptibility to the anti-viral agent can be measured by comparing the luciferase activity in the presence and absence of the anti-viral agent. Susceptible viruses would produce low levels of luciferase activity in the presence of anti-viral agents, whereas viruses with reduced susceptibility would produce higher levels of luciferase activity.
The phenotypic assay was conducted using the PHENOSENSE™ (Monogram Biosciences, Inc, South San Francisco, Calif.) HIV assay (Petropoulos et al., 2000, Antimicrob. Agents Chemother. 44:920-928; U.S. Pat. Nos. 5,837,464 and 6,242,187, and International Patent Application No. PCT/US06/05512). Plasma samples were collected from HIV-1-infected patients. IC50 values for tipranavir were obtained for the HIV-1 from the patient sample. This was compared to the IC50 for tipranavir against the NL4-3 (GenBank Accession No. AF324493) reference viral strain. […]

[1] = Kohlbrenner TPV mutation score 0
[2] = Kohlbrenner TPV mutation score 0, 4492 samples
[3] = Kohlbrenner TPV mutation score 1
[4] = Kohlbrenner TPV mutation score 1, 4492 samples
[5] = Kohlbrenner TPV mutation score 2
[6] = Kohlbrenner TPV mutation score 2, 4492 samples
[7] = Kohlbrenner TPV mutation score 3
[8] = Kohlbrenner TPV mutation score 3, 4492 samples
[9] = Kohlbrenner TPV mutation score 4
[10] = Kohlbrenner TPV mutation score 4, 4492 samples
[11] = Kohlbrenner TPV mutation score 5
[12] = Kohlbrenner TPV mutation score 5, 4492 samples
[13] = Kohlbrenner TPV mutation score 6
[14] = Kohlbrenner TPV mutation score 6, 4492 samples
[15] = Kohlbrenner TPV mutation score 7
[16] = Kohlbrenner TPV mutation score 7, 4492 samples
[17] = Kohlbrenner TPV mutation score 8-9
[18] = Kohlbrenner TPV mutation score 8, 4492 samples
[19] = Kohlbrenner TPV mutation score 9, 4492 samples
[20] = adjusted mutation score 3, training data with gag (n = 1916)
[21] = adjusted mutation score 3, validation data with gag (n = 1916)
[22] = adjusted mutation score 3.5, training data with gag (n = 1916)
[23] = adjusted mutation score 3.5, validation data with gag (n = 1916)
[24] = adjusted mutation score 4, training data with gag (n = 1916)
[25] = adjusted mutation score 4, validation data with gag (n = 1916)
[26] = adjusted mutation score 4.5, training data with gag (n = 1916)
[27] = adjusted mutation score 4.5, validation data with gag (n = 1916)
[28] = adjusted mutation score 5, training data with gag (n = 1916)
[29] = adjusted mutation score 5, validation data with gag (n = 1916)
[30] = adjusted mutation score 5.5, training data with gag (n = 1916)
[31] = adjusted mutation score 5.5, validation data with gag (n = 1916)
[32] = adjusted mutation score 6, training data with gag (n = 1916)
[33] = adjusted mutation score 6, validation data with gag (n = 1916)
[34] = adjusted mutation score 6.5, training data with gag (n = 1916)
[35] = adjusted mutation score 6.5, validation data with gag (n = 1916)
[36] = adjusted mutation score <3, training data with gag (n = 1916)
[37] = adjusted mutation score <3, validation data with gag (n = 1916)
[38] = adjusted mutation score >=7, training data with gag (n = 1916)
[39] = adjusted mutation score >=7, validation data with gag (n = 1916)
[40] = base mutation score 0, validation data (n = 2246)
[41] = base mutation score 1, validation data (n = 2246)
[42] = base mutation score 2, validation data (n = 2246)
[43] = base mutation score 3, validation data (n = 2246)
[44] = base mutation score 4, validation data (n = 2246)
[45] = base mutation score 5, validation data (n = 2246)
[46] = base mutation score 6, validation data (n = 2246)
[47] = base mutation score 7, validation data (n = 2246)
[48] = base mutation score 8, validation data (n = 2246)
[49] = base mutation score 9, validation data (n = 2246)
[50] = samples with 3 TPV mutations (Kohlbrenner score), 4492 samples

CCC[C@@]1(CCc2ccccc2)CC(O)=C([C@H](CC)c2cccc(NS(=O)(=O)c3ccc(C(F)(F)F)cn3)c2)C(=O)O1 [TPV, tipranavir]
MEAN tipranavir FC [1]: 0.8 | MEDIAN tipranavir FC [1]: 0.7 | Mean FC [2]: 0.8 | Median FC [2]: 0.7 | MEAN tipranavir FC [3]: 1.0 | MEDIAN tipranavir FC [3]: 0.8 | Mean FC [4]: 1.1 | Median FC [4]: 0.9 | MEAN tipranavir FC [5]: 1.5 | MEDIAN tipranavir FC [5]: 1.1 | Mean FC [6]: 1.6 | Median FC [6]: 1.1 | MEAN tipranavir FC [7]: 3.1 | MEDIAN tipranavir FC [7]: 1.6 | Mean FC [8]: 3.1 | Median FC [8]: 1.7 | MEAN tipranavir FC [9]: 6.1 | MEDIAN tipranavir FC [9]: 3.0 | Mean FC [10]: 5.8 | Median FC [10]: 2.9 | MEAN tipranavir FC [11]: 11 | MEDIAN tipranavir FC [11]: 5.7 | Mean FC [12]: 10 | Median FC [12]: 5.5 | MEAN tipranavir FC [13]: 16 | MEDIAN tipranavir FC [13]: 8.8 | Mean FC [14]: 17 | Median FC [14]: 10.7 | MEAN tipranavir FC [15]: 32 | MEDIAN tipranavir FC [15]: 12 | Mean FC [16]: 24 | Median FC [16]: 16 | MEAN tipranavir FC [17]: 44 | MEDIAN tipranavir FC [17]: 24 | Mean FC [18]: 30 | Median FC [18]: 31 | Mean FC [19]: 42 | Median FC [19]: 53 | mean TPV FC [20]: 2.3 | median TPV FC [20]: 1.5 | mean TPV FC [21]: 1.8 | median TPV FC [21]: 1.4 | mean TPV FC [22]: 3.2 | median TPV FC [22]: 1.5 | mean TPV FC [23]: 2.3 | median TPV FC [23]: 1.5 | mean TPV FC [24]: 2.5 | median TPV FC [24]: 2.0 | mean TPV FC [25]: 2.6 | median TPV FC [25]: 2.0 | mean TPV FC [26]: 3.1 | median TPV FC [26]: 2.2 | mean TPV FC [27]: 3.5 | median TPV FC [27]: 2.4 | mean TPV FC [28]: 4.0 | median TPV FC [28]: 2.8 | mean TPV FC [29]: 4.4 | median TPV FC [29]: 2.8 | mean TPV FC [30]: 5.1 | median TPV FC [30]: 2.4 | mean TPV FC [31]: 5.2 | median TPV FC [31]: 3.2 | mean TPV FC [32]: 7.2 | median TPV FC [32]: 4.9 | mean TPV FC [33]: 8.6 | median TPV FC [33]: 4.5 | mean TPV FC [34]: 10.0 | median TPV FC [34]: 6.3 | mean TPV FC [35]: 12.6 | median TPV FC [35]: 7.4 | mean TPV FC [36]: 1.1 | median TPV FC [36]: 0.9 | mean TPV FC [37]: 1.1 | median TPV FC [37]: 0.9 | mean TPV FC [38]: 19.7 | median TPV FC [38]: 13.4 | mean TPV FC [39]: 20.1 | median TPV FC [39]: 12.5 | mean TPV FC [40]: 0.8 | median TPV FC [40]: 0.7 | mean TPV FC [41]: 1.1 | median TPV FC [41]: 0.9 | mean TPV FC [42]: 1.7 | median TPV FC [42]: 1.2 | mean TPV FC [43]: 3.4 | median TPV FC [43]: 1.8 | mean TPV FC [44]: 6.4 | median TPV FC [44]: 3.2 | mean TPV FC [45]: 10.7 | median TPV FC [45]: 5.7 | mean TPV FC [46]: 18 | median TPV FC [46]: 11.7 | mean TPV FC [47]: 24 | median TPV FC [47]: 19 | mean TPV FC [48]: 31 | median TPV FC [48]: 33 | mean TPV FC [49]: 41 | median TPV FC [49]: 41 | samples with TPV FC greater than 2-fold [50]: 44% | samples with TPV FC greater than 4-fold [50]: 19%
